From patent US20250206757A1 (GASHERBRUM BIO, INC., priority 2022, published 2025)

target: GLP-1 Receptor (Homo sapiens, UniProt P43220); test: GLP-1R agonist cAMP stimulation assay (HEK293/GLP1R/CRE-LUC cells, HTRF cAMP dynamic 2 kit); assay type: cell-based; details: HEK293/CRE-Luc cell line stably expressing the GLP-1 Receptor; 30 min incubation at 37° C.
Method in brief: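 HEK293 cells stably expressing GLP-1R with CRE-Luc, 1000 cells/well in DPBS with 0.5 mM IBMX and 0.10% BSA, exposed to half-log compound dilutions for 30 min at 37 °C. cAMP measured by HTRF (665/615 nm) after 1 h at room temperature.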

Chain of GLP-1 Receptor (P43220 24-463): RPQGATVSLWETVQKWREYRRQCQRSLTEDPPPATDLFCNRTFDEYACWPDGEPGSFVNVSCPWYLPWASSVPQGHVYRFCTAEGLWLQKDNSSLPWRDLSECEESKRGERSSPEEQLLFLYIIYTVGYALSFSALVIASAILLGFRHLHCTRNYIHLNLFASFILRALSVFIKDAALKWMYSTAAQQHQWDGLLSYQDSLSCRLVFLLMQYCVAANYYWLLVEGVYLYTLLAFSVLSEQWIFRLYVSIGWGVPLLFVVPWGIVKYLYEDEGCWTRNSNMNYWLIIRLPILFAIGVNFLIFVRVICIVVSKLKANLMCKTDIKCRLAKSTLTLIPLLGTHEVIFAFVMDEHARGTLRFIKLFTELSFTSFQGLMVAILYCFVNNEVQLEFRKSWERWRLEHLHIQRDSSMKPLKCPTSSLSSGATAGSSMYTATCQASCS

Question: For COCCn1c(CN2CCc3cc(C(F)(F)F)c(OCc4ccc(Cl)cc4F)nc3C2)nc2cc(-c3nnc(C(F)(F)F)[nH]3)ncc21 [Compound 80, 2-[(4-chloro-2-fluorophenyl)methoxy]-7-{[3-(2-methoxyethyl)-6-[5-(trifluoromethyl)-4H-1,2,4-triazol-3-yl]-3H-imidazo[4,5-c]pyridin-2-yl]methyl}-3-(trifluoromethyl)-5,6,7,8-tetrahydro-1,7-naphthyridine], which EC50 is on record?
Answer: 1 to 300 nM

Question: Which EC50 does the source give for CC(c1nc2cc(-c3nnc(C(F)(F)F)[nH]3)ncc2n1C[C@@H]1CCO1)N1CCc2cc(C(F)(F)F)c(OCc3ccc(Cl)cc3F)nc2C1 (stereo partly drawn) [Compound 82, 2-[(4-chloro-2-fluorophenyl)methoxy]-7-[1-(3-{[(2S)-oxetan-2-yl]methyl}-6-[5-(trifluoromethyl)-4H-1,2,4-triazol-3-yl]-3H-imidazo[4,5-c]pyridin-2-yl)ethyl]-3-(trifluoromethyl)-5,6,7,8-tetrahydro-1,7-naphthyridine] here?
Answer: < 1 nM

Question: CC(c1nc2cc(-c3nnc(C(F)(F)F)[nH]3)ncc2n1C[C@@H]1CCO1)N1CCc2cc(C(F)(F)F)c(OCc3c(F)cc(Cl)cc3F)nc2C1 (stereo partly drawn) [Compound 83, 2-[(4-chloro-2,6-difluorophenyl)methoxy]-7-[1-(3-{1[(2S)-oxetan-2-yl]methyl}-6-[5-(trifluoromethyl)-4H-1,2,4-triazol-3-yl]-3H-imidazo[4,5-c]pyridin-2-yl)ethyl]-3-(trifluoromethyl)-5,6,7,8-tetrahydro-1,7-naphthyridine] was tested. Which EC50 did it give?
Answer: < 1 nM

Question: Which EC50 does the source give for CC(c1nc2cc(-c3nnc(C#N)[nH]3)ncc2n1C[C@@H]1CCO1)N1CCc2cc(C(F)(F)F)c(OCc3c(F)cc(Cl)cc3F)nc2C1 (stereo partly drawn) [Compound 84, 5-[2-(1-{2-[(4-chloro-2,6-difluorophenyl)methoxy]-3-(trifluoromethyl)-5,6,7,8-tetrahydro-1,7-naphthyridin-7-yl}ethyl)-3-{1[(2S)-oxetan-2-yl]methyl}-3H-imidazo[4,5-c]pyridin-6-yl]-4H-1,2,4-triazole-3-carbonitrile] here?
Answer: < 1 nM

Question: For Fc1cc(Cl)ccc1COc1nc2c(cc1C(F)(F)F)CCN(Cc1nc3cc(-c4nnc(S)[nH]4)ccc3n1C[C@@H]1CCO1)C2 [Compound 85, 5-[2-({2-[(4-chloro-2-fluorophenyl)methoxy]-3-(trifluoromethyl)-5,6,7,8-tetrahydro-1,7-naphthyridin-7-yl}methyl)-1-{[(2S)-oxetan-2-yl]methyl}-1H-1,3-benzodiazol-5-yl]-4H-1,2,4-triazole-3-thiol], which EC50 is on record?
Answer: < 1 nM

Question: Which EC50 does the source give for CSc1nnc(-c2ccc3c(c2)nc(CN2CCc4cc(C(F)(F)F)c(OCc5ccc(Cl)cc5F)nc4C2)n3C[C@@H]2CCO2)[nH]1 [Compound 86, 2-[(4-chloro-2-fluorophenyl)methoxy]-7-({5-[5-(methylsulfanyl)-4H-1,2,4-triazol-3-yl]-1-{[(2S)-oxetan-2-yl]methyl}-1H-1,3-benzodiazol-2-yl}methyl)-3-(trifluoromethyl)-5,6,7,8-tetrahydro-1,7-naphthyridine] here?
Answer: < 1 nM

Question: Which EC50 does the source give for CS(=O)(=O)c1nnc(-c2ccc3c(c2)nc(CN2CCc4cc(C(F)(F)F)c(OCc5ccc(Cl)cc5F)nc4C2)n3C[C@@H]2CCO2)[nH]1 [Compound 87, 2-[(4-chloro-2-fluorophenyl)methoxy]-7-{[5-(5-methanesulfonyl-4H-1,2,4-triazol-3-yl)-1-{[(2S)-oxetan-2-yl]methyl}-1H-1,3-benzodiazol-2-yl]methyl}-3-(trifluoromethyl)-5,6,7,8-tetrahydro-1,7-naphthyridine] here?
Answer: 1 to 300 nM

Question: Fc1cc(Cl)ccc1COc1nc2c(cc1C(F)(F)F)CCN(Cc1nc3c(F)c(-c4nnn[nH]4)ccc3n1C[C@@H]1CCO1)C2 [Compound 88, 2-[(4-chloro-2-fluorophenyl)methoxy]-7-[(4-fluoro-1-{[(2S)-oxetan-2-yl]methyl}-5-(1H-1,2,3,4-tetrazol-5-yl)-1H-1,3-benzodiazol-2-yl)methyl]-3-(trifluoromethyl)-5,6,7,8-tetrahydro-1,7-naphthyridine] was tested. Which EC50 did it give?
Answer: < 1 nM
